# Measured values from ChEMBL document CHEMBL1201862, “PubChem BioAssay data set” (2004).
# Activity calls are given as the source filed them.
# Experiments:
# Streptococcus [1] = assay: Group A Streptococcus viability loss, dose response, counter-screen for streptokinase expression inhibitor project, luminescence, BacTiterGlo (AID 1915); assay type: functional, organism-based;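 note: potency for reduction of bacterial viability or growth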
# Streptococcus [2] = assay: Luminescence Microorganism-Based Dose Response Follow up to Identify Compounds Cytotoxic to Streptococcus. [Related pubchem assays: 1677 (Project Summary), 1915, 1914, 1902 (Retest at Dose), 1900 (Counter Screen), 1662 (Primary HTS)]; assay type: functional, organism-based
# Streptokinase A = target: T1, Streptokinase A (Streptococcus pyogenes serotype M1, UniProt P10520); assay: S. pyogenes streptokinase expression inhibitors, potency, dose response, plasminogen activation absorbance, OD405 (AID 1914); assay type: functional, Streptococcus pyogenes M1 GAS;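 note: secreted streptokinase activity via plasminogen activation per viability signal from cell pellet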
# T1 sequence (P10520 whole entry): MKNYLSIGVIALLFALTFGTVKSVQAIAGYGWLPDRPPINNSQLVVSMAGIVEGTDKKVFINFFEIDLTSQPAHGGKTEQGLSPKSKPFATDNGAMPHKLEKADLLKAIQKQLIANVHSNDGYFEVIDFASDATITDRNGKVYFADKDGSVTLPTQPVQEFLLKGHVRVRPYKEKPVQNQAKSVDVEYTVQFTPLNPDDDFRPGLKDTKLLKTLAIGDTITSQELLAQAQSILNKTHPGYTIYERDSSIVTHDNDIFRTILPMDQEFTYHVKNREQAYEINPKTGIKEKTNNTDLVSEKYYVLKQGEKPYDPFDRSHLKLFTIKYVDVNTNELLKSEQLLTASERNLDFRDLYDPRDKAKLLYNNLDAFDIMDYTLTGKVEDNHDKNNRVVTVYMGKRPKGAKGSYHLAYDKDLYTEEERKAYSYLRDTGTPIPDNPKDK
# [3] = test system: Streptococcus sp. 'group A'; assay: growth inhibition of control SK(-) GAS strain, dose response, counter-screen for streptokinase expression inhibitor project, luminescence, kanamycin, BacTiterGlo, confirmation (AID 1900); assay type: functional, organism-based
# [4] = target: Melanin-concentrating hormone receptor 1 (Homo sapiens, UniProt Q99705); assay: Fluorescence-based counterscreen for antagonists of the G-protein coupled receptor 7 (GPR7): cell-based high throughput dose response assay to identify antagonists of the melanin-concentrating hormone receptor 1 (MCHR1).; assay type: functional
# [5] = target: T2, Short transient receptor potential channel 4 (Mus musculus, UniProt Q9QUQ5); assay: TRPC4 positive allosteric modulators, dose response, cell-based, HEK293 TRPC4/mu-opioid, Fluo-4 calcium, EC20 DAMGO (AID 434941); assay type: functional
# T2 sequence (Q9QUQ5 whole entry): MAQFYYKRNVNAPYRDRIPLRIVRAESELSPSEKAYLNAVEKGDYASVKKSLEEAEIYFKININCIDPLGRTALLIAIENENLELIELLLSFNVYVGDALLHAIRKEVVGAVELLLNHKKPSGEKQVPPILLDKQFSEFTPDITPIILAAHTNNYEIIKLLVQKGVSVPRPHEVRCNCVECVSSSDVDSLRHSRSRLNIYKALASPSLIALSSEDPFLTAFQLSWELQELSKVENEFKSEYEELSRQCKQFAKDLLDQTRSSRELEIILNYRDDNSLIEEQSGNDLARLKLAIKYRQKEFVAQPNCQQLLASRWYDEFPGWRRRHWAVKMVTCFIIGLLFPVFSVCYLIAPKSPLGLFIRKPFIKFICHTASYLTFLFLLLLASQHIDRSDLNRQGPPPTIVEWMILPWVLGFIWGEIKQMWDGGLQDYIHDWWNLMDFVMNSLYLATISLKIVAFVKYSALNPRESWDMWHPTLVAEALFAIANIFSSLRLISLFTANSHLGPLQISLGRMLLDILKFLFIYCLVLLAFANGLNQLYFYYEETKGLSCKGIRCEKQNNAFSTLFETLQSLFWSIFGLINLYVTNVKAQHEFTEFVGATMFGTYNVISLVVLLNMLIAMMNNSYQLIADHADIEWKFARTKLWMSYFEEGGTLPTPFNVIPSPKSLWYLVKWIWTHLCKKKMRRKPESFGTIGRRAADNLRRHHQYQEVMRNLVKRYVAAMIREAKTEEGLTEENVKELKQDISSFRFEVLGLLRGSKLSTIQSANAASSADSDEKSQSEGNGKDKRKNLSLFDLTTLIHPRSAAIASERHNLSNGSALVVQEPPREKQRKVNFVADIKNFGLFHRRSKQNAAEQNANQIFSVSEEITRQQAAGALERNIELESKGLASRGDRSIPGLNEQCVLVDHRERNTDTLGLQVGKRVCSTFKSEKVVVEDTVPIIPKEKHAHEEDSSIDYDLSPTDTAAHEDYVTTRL
# [6] = target: Intestinal-type alkaline phosphatase (Homo sapiens, UniProt P09923); assay: Dose Response confirmation of uHTS hits from a small molecule inhibitors of human intestinal alkaline phosphatase via a luminescent assay. [Related pubchem assays (depositor defined):AID2544, AID2574]; assay type: functional
# HeLa = assay: HeLa cell cytotoxicity, dose response, cytotoxicity control, 24 h, cherry-picked samples (AID 504726); assay type: functional, cell-based; settings: Homo sapiens;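 note: potency for cytotoxicity as loss of luminescence signal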
# [7] = Luminescence Cell-Based Dose Retest to Confirm Inhibitors of Cancer Stem Cells. [Related pubchem assays (depositor defined):AID2717, AID2721]; assay type: functional; settings: Homo sapiens
# [8] = control 3'UTR Renilla luciferase suppression, dose response, counter-screen for Shn3 inhibitor project, cell-based, Clone20-Shn3RL, cherry-picked (AID 624133); assay type: functional
# [9] = Shn3 3'UTR reporter inhibitors, dose response, cell-based, Clone20 osteoblasts, firefly luciferase, cherry-picked (AID 624132); assay type: functional;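 note: firefly luciferase luminescence from reporter carrying the Shn3 3'UTR in osteoblasts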
# Hexokinase = Hexokinase (Trypanosoma brucei, UniProt Q38C41); assay: Confirmation assay for inhibitors of Trypanosoma brucei hexokinase 1-Analogue-first series. [Related pubchem assays (depositor defined):AID1430, AID1632, AID2516, AID2560, AID2579, AID2600, AID449725, AID492951]; assay type: functional
# [10] = target: T3, Sentrin-specific protease 6 (Homo sapiens, UniProt Q9GZR1); assay type: functional;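 note: Luminescence-based dose-response confirmatory assay of SENP6 inhibition, following up an ultra-high-throughput screen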
# T3 sequence (Q9GZR1 whole entry): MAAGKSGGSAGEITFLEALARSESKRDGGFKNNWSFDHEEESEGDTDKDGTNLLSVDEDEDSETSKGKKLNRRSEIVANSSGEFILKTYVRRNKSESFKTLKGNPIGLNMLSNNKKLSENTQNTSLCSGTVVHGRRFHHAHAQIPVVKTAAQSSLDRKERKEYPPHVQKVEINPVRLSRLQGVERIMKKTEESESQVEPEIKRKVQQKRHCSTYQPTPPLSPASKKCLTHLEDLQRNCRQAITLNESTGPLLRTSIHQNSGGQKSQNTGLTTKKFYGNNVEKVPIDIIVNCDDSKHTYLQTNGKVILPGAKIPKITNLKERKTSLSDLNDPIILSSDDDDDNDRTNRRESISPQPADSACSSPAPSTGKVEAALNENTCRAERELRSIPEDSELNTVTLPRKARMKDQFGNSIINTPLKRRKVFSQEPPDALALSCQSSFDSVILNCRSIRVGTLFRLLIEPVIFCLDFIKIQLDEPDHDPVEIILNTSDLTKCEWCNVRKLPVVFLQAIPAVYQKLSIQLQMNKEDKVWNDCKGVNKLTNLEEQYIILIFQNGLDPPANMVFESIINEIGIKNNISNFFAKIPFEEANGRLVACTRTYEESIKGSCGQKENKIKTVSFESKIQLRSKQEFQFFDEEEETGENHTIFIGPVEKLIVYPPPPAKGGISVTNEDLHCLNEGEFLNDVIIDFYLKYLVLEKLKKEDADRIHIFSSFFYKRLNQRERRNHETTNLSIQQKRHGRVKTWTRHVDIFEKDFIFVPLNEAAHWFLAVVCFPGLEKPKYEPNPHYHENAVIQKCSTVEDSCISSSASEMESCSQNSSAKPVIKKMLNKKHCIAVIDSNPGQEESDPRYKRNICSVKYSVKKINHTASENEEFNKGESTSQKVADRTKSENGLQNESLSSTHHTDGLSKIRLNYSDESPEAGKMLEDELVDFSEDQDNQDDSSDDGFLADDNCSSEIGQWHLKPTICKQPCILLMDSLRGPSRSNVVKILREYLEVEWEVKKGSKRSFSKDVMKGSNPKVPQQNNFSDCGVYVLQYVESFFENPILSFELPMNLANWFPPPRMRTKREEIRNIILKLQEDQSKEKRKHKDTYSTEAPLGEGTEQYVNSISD
# Caspase-3 = target: T4, Caspase-3 (Homo sapiens, UniProt P42574); assay type: functional;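 note: Dose-response selectivity test against caspase-3 for candidate inhibitors of sentrin-specific proteases (SENPs)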
# T4 sequence (P42574 whole entry): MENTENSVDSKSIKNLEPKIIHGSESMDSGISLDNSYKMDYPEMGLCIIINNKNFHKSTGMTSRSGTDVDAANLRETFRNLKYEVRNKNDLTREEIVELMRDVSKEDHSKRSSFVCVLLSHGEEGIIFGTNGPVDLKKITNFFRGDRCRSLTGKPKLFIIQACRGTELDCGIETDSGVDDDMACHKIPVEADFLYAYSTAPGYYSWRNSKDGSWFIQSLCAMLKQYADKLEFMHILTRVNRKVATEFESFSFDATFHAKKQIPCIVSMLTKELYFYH
# [11] = target: T5, Sentrin-specific protease 8 (Homo sapiens, UniProt Q96LD8); assay type: functional;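 note: luminescence read-out of SENP8 inhibition, dose-response confirmation following an ultra-high-throughput screen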
# T5 sequence (Q96LD8 whole entry): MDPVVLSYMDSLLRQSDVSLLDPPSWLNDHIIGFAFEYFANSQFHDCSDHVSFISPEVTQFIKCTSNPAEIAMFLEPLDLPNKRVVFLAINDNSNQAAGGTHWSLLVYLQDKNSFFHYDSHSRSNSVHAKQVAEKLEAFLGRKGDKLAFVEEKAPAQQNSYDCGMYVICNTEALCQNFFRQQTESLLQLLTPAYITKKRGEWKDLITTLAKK
# [12] = target: T6, Sentrin-specific protease 7 (Homo sapiens, UniProt Q9BQF6); assay type: functional;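 note: Luminescence-based dose-response confirmation of ultra-high-throughput screening hits, measuring inhibition of SENP7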
# T6 sequence (Q9BQF6 whole entry): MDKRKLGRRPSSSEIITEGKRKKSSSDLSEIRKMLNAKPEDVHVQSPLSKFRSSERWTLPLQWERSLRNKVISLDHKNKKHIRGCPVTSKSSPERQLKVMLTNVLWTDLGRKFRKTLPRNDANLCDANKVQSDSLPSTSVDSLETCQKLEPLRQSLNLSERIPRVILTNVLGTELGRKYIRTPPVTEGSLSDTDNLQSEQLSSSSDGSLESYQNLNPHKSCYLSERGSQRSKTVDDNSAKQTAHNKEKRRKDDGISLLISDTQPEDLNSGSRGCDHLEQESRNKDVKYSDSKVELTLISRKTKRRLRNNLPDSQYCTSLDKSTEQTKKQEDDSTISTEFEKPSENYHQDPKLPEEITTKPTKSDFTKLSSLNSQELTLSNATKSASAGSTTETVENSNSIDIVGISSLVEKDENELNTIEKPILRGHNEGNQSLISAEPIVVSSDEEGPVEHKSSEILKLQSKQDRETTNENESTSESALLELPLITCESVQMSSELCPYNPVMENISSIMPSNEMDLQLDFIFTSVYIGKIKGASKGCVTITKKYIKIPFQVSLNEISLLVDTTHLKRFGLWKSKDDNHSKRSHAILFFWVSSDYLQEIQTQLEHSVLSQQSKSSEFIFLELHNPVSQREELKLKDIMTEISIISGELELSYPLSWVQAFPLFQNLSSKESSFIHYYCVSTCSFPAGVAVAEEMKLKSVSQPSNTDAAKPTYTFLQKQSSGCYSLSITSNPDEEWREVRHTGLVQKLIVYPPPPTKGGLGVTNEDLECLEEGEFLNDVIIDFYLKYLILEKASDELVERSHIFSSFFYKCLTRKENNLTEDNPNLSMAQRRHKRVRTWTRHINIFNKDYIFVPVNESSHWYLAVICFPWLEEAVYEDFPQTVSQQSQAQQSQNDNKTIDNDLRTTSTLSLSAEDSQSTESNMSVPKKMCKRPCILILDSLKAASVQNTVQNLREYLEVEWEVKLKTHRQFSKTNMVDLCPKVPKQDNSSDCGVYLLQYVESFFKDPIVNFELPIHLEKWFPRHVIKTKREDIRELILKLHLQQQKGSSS
# Chain of Hexokinase (Q38C41 whole entry): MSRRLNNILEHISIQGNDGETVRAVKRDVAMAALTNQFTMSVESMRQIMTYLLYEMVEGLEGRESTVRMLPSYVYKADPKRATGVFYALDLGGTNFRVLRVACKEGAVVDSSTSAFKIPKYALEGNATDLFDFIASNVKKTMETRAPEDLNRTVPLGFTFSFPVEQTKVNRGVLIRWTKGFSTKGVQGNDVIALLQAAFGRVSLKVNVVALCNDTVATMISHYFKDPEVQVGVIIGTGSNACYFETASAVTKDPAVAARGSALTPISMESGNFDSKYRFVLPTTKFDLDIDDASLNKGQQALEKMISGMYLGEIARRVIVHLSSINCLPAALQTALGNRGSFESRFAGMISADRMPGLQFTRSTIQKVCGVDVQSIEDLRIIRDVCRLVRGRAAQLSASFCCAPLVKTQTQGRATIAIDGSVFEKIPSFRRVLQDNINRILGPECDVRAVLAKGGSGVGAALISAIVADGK
# Chain of Melanin-concentrating hormone receptor 1 (Q99705 whole entry): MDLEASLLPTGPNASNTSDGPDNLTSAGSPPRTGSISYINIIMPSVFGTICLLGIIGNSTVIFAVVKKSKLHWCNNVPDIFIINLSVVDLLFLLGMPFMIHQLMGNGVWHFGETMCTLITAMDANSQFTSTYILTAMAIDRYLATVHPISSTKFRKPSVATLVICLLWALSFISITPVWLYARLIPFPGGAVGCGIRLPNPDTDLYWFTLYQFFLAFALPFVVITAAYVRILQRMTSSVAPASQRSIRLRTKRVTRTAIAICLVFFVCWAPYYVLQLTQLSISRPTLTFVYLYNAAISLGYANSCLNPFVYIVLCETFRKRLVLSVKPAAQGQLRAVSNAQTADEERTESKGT
# Chain of Intestinal-type alkaline phosphatase (P09923 whole entry): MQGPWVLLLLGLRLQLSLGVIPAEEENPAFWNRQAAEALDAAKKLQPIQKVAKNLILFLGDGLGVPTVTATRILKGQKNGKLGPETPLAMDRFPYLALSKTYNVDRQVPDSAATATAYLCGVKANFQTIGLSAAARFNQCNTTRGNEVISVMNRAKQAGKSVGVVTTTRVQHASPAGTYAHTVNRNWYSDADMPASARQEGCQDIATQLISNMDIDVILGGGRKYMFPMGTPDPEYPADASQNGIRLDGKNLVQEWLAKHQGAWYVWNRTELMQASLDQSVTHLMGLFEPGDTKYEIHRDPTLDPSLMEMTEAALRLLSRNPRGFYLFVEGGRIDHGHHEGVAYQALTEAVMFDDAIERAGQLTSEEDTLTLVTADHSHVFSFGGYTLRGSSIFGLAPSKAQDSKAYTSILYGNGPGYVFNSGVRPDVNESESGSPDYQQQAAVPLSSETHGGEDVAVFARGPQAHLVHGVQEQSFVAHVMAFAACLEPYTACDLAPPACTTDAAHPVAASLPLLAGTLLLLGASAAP
structure (smiles),measurement,setting,value
Cc1noc(C)c1CSc1nc2sc(C)c(C)c2c(=O)n1C1CCCC1,EC50,Streptococcus [1],> 150 µM (not active)
same,EC50,Streptococcus [2],> 500 µM (not active)
same,EC50,Streptokinase A,3.31 µM (active)
same,EC50,[3],5.22 µM (active)
CC(C)Cc1cc(C(=O)N2CCCC(CO)(Cc3ccc(F)cc3F)C2)[nH]n1 (stereo not drawn),IC50,[4],33 µM (not active)
O=C(Nc1cccc(Cl)c1)N1CCN(C/C=C/c2ccccc2)CC1,EC50,[5],0.12 µM (active)
Cc1ccc(NC(=O)c2ccncc2)cc1[N+](=O)[O-],IC50,[6],> 100 µM (inactive)
CCc1sc(C(=O)NNC(=O)CNC(=O)c2ccccc2F)cc1C,AC50,HeLa,73 µM (active)
Cc1ccc(-c2nnc(N3CCC(C)CC3)c3ccccc23)cc1C,EC50,[5],3.35 µM (active)
same,AC50,[7],4.62 µM (active)
same,AC50,[8],8.42 µM (active)
same,AC50,[9],6.41 µM (active)
COc1ccc(C(=O)Nc2cc(F)cc(F)c2O)cc1,IC50,Hexokinase,> 25 µM (inactive)
COc1ccc(-c2cc3ccccc3[nH]2)cc1,IC50,[10],34.5 µM (active)
same,IC50,Caspase-3,14.1 µM (active)
same,IC50,[11],45.2 µM (active)
same,IC50,Hexokinase,> 25 µM (inactive)
same,IC50,[12],18.2 µM (active)
